Earlier results on 1 compound are cited in paper PMC8679620, “Receptor-Targeted Photodynamic Therapy of Glucagon-Like Peptide 1 Receptor–Positive Lesions” (Journal of Nuclear Medicine, 2020).

For this data set the following is noted: at 689 nm; ref [12],[17]. The text has this: Exendin-4-IRDye700DX was supplied by piCHEM. IRDye700DX NHS ester was obtained from LI-COR Biosciences.

SMILES strings stand for the structures.

Take `C[Si](C)(CCC[N+](CCCS(=O)(=O)[O-])(CCCS(=O)(=O)[O-])CCCS(=O)(=O)[O-])O[Si]1(O[Si](C)(C)CCC[N+](CCCS(=O)(=O)[O-])(CCCS(=O)(=O)[O-])CCCS(=O)(=O)[O-])n2c3c4ccccc4c2N=C2N=C(N=c4c5ccccc5c(n41)=NC1=NC(=N3)c3ccccc31)c1cccc(OCCCOC(=O)NCCCCCC(=O)ON3C(=O)CCC3=O)c12.[Na+].[Na+].[Na+].[Na+]` (stereo not shown) [IRDye700DX]: the extinction coefficient is 210000 M⁻¹ cm⁻¹.
